# Key:
# [1] = test system: sedge, umbrella; test: Test C flooded paddy test; assay type: in vivo, Cyperus difformis; conditions: Flood
# Excerpt: (§1) Plant species in the flooded paddy test consisted of rice (Oryza sativa), sedge, umbrella (small-flower umbrella sedge, Cyperus difformis), ducksalad (Heteranthera limosa), and barnyardgrass (Echinochloa crus-galli) grown to the 2-leaf stage for testing. At time of treatment, test pots were flooded to 3 cm above the soil surface, treated by application of test compounds directly to the paddy water, and then maintained at that water depth for the duration of the test. Treated plants and controls were maintained in a greenhouse for 13 to 15 days, after which time all species were compared to controls and visually evaluated. Plant response ratings, summarized in Table C, are based on a scale of 0 to 100 where 0 is no effect and 100 is complete control. A dash (-) response means no test result.
# [2] = test system: barnyardgrass; test: Test A pre-/postemergence herbicide test; assay type: in vivo, Echinochloa crus-galli
# Summary of the method: (§2)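 Formulated compound (non-phytotoxic solvent, surfactant) sprayed pre- onto soil of seeded loam/sand pots or post- onto seedlings at 1–2 leaves; ~10 d greenhouse; 0–100 visual control rating versus untreated.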
# [3] = test system: velvetleaf; test: Test A pre-/postemergence herbicide test; assay type: in vivo, Abutilon theophrasti
# Summary of the method: as §2
# [4] = test system: giant foxtail; test: Test A pre-/postemergence herbicide test; assay type: in vivo, Setaria faberii
# Summary of the method: as §2
# [5] = test system: barnyardgrass; test: Test C flooded paddy test; assay type: in vivo, Echinochloa crus-galli; conditions: Flood
# Summary of the method: (§3)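 Plants grown to the 2-leaf stage; pots flooded to 3 cm above soil and compound applied directly into the paddy water, depth kept throughout. Greenhouse 13 to 15 days, then visual rating vs untreated controls on 0–100 scale (0 no effect, 100 complete control); dash means no result.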
# [6] = test system: ducksalad; test: Test C flooded paddy test; assay type: in vivo, Heteranthera limosa; conditions: Flood
# Excerpt: as §1
# [7] = test system: pigweed; test: Test A pre-/postemergence herbicide test; assay type: in vivo, Amaranthus retroflexus
# Summary of the method: as §2
# [8] = test system: rice; test: Test C flooded paddy test; assay type: in vivo, Oryza sativa; conditions: Flood
# Summary of the method: as §3
# [9] = test system: morningglory; test: Test A pre-/postemergence herbicide test; assay type: in vivo, Ipomoea spp.
# Summary of the method: as §2
# [10] = test system: corn; test: Test A pre-/postemergence herbicide test; assay type: in vivo, Zea mays
# Summary of the method: as §2
# [11] = test system: crabgrass, large; test: Test A pre-/postemergence herbicide test; assay type: in vivo, Digitaria sanguinalis
# Summary of the method: as §2
# [12] = test system: wheat; test: Test A pre-/postemergence herbicide test; assay type: in vivo, Triticum aestivum
# Summary of the method: as §2
# [13] = 31 g ai/ha, scale of 0 to 100 where 0 is no effect and 100 is complete control, 13 to 15 days
# [14] = 62 g ai/ha, scale of 0 to 100 where 0 is no effect and 100 is complete control, 13 to 15 days
# [15] = 125 g ai/ha, scale of 0 to 100 where 0 is no effect and 100 is complete control, 13 to 15 days
# [16] = Postemergence, 125 g ai/ha, 0 to 100 scale, 0 no effect, 100 complete control
# [17] = Postemergence, 500 g ai/ha, 0 to 100 scale (0 no effect, 100 complete control)
# [18] = Preemergence, 125 g ai/ha, visual rating on 0 to 100 scale (0 no effect, 100 complete control)
# [19] = preemergence, 500 g ai/ha, 0 to 100 scale (0 no effect, 100 complete control)
# [20] = preemergence, 500 g ai/ha, 0 to 100 scale
# [21] = Postemergence, 1000 g ai/ha, 0 to 100 scale (0 no effect, 100 complete control)
# [22] = Preemergence, 1000 g ai/ha, visual rating on 0 to 100 scale (0 no effect, 100 complete control), approx. 10 days
compound,measurement,setting,value
O=C1NCC(c2cccc(F)c2)C1C(=O)Nc1ccccc1F (racemic) [Compound 1],"Plant response rating, Sedge, Umbrella",[1]; [13],0
same,"Plant response rating, Sedge, Umbrella",[1]; [14],0
same,"Plant response rating, Sedge, Umbrella",[1]; [15],0
same,"Plant response rating, Sedge, Umbrella","[1]; 250 g ai/ha, scale 0 to 100",0
same,"Plant response rating, Barnyardgrass",[2]; [16],50
same,"Plant response rating, Barnyardgrass",[2]; [17],80
same,Barnyardgrass plant response rating,[2]; [18],30
same,"Plant response rating, Barnyardgrass",[2]; [19],90
same,"Plant response rating, Velvetleaf",[3]; [17],0
same,Velvetleaf plant response rating,[3]; [18],0
same,"Plant response rating, Velvetleaf",[3]; [20],0
same,"Plant response rating, Foxtail, Giant",[4]; [16],20
same,"Plant response rating, Foxtail, Giant",[4]; [17],60
same,"Foxtail, Giant plant response rating",[4]; [18],70
same,"Plant response rating, Foxtail, Giant",[4]; [20],90
same,"Plant response rating, Barnyardgrass",[5]; [13],0
same,"Plant response rating, Barnyardgrass",[5]; [14],0
same,"Plant response rating, Barnyardgrass",[5]; [15],0
same,"Plant response rating, Barnyardgrass","[5]; 250 g ai/ha, scale 0 to 100",0
same,"Plant response rating, Ducksalad",[6]; [13],0
same,"Plant response rating, Ducksalad",[6]; [14],0
same,"Plant response rating, Ducksalad",[6]; [15],0
same,"Plant response rating, Ducksalad","[6]; 250 g ai/ha, scale 0 to 100",0
same,"Plant response rating, Pigweed",[7]; [17],0
same,Pigweed plant response rating,[7]; [18],0
same,"Plant response rating, Pigweed",[7]; [20],0
same,"Plant response rating, Rice",[8]; [13],0
same,"Plant response rating, Rice",[8]; [14],0
same,"Plant response rating, Rice",[8]; [15],0
same,"Plant response rating, Rice","[8]; 250 g ai/ha, scale 0 to 100",0
same,"Plant response rating, Morningglory",[9]; [17],0
same,Morningglory plant response rating,[9]; [18],0
same,"Plant response rating, Morningglory",[9]; [20],0
same,"Plant response rating, Corn",[10]; [16],0
same,"Plant response rating, Corn",[10]; [17],0
same,Corn plant response rating,[10]; [18],0
same,"Plant response rating, Corn",[10]; [20],20
same,"Plant response rating, Crabgrass, Large",[11]; [16],30
same,"Plant response rating, Crabgrass, Large",[11]; [17],80
same,"Crabgrass, Large plant response rating",[11]; [18],90
same,"Plant response rating, Crabgrass, Large",[11]; [20],90
same,"Plant response rating, Wheat",[12]; [17],0
same,Wheat plant response rating,[12]; [18],0
same,"Plant response rating, Wheat",[12]; [20],0
O=C1NCC(c2cccc(C(F)(F)F)c2)C1C(=O)Nc1ccccc1C(F)(F)F (racemic) [Compound 4],"Plant response rating, Sedge, Umbrella",[1]; [13],0
same,"Plant response rating, Sedge, Umbrella",[1]; [14],0
same,"Plant response rating, Sedge, Umbrella",[1]; [15],0
same,"Plant response rating, Sedge, Umbrella","[1]; 250 g ai/ha, scale 0 to 100",0
same,"Plant response rating, Barnyardgrass",[2]; [16],60
same,"Plant response rating, Barnyardgrass",[2]; [17],70
same,Barnyardgrass plant response rating,[2]; [18],60
same,"Plant response rating, Barnyardgrass",[2]; [19],80
same,"Plant response rating, Velvetleaf",[3]; [17],0
same,Velvetleaf plant response rating,[3]; [18],0
same,"Plant response rating, Velvetleaf",[3]; [20],0
same,"Plant response rating, Foxtail, Giant",[4]; [16],60
same,"Plant response rating, Foxtail, Giant",[4]; [17],70
same,"Foxtail, Giant plant response rating",[4]; [18],80
same,"Plant response rating, Foxtail, Giant",[4]; [20],90
same,"Plant response rating, Barnyardgrass",[5]; [13],0
same,"Plant response rating, Barnyardgrass",[5]; [14],0
same,"Plant response rating, Barnyardgrass",[5]; [15],30
same,"Plant response rating, Barnyardgrass","[5]; 250 g ai/ha, scale 0 to 100",40
same,"Plant response rating, Ducksalad",[6]; [13],20
same,"Plant response rating, Ducksalad",[6]; [14],30
same,"Plant response rating, Ducksalad",[6]; [15],80
same,"Plant response rating, Ducksalad","[6]; 250 g ai/ha, scale 0 to 100",85
same,"Plant response rating, Pigweed",[7]; [17],50
same,Pigweed plant response rating,[7]; [18],0
same,"Plant response rating, Pigweed",[7]; [20],0
same,"Plant response rating, Rice",[8]; [13],0
same,"Plant response rating, Rice",[8]; [14],0
same,"Plant response rating, Rice",[8]; [15],0
same,"Plant response rating, Rice","[8]; 250 g ai/ha, scale 0 to 100",0
same,"Plant response rating, Morningglory",[9]; [17],30
same,Morningglory plant response rating,[9]; [18],0
same,"Plant response rating, Morningglory",[9]; [20],0
same,"Plant response rating, Corn",[10]; [16],0
same,"Plant response rating, Corn",[10]; [17],50
same,Corn plant response rating,[10]; [18],0
same,"Plant response rating, Corn",[10]; [20],0
same,"Plant response rating, Crabgrass, Large",[11]; [16],60
same,"Plant response rating, Crabgrass, Large",[11]; [17],80
same,"Crabgrass, Large plant response rating",[11]; [18],90
same,"Plant response rating, Crabgrass, Large",[11]; [20],90
same,"Plant response rating, Wheat",[12]; [17],50
same,Wheat plant response rating,[12]; [18],60
same,"Plant response rating, Wheat",[12]; [20],70
N#Cc1ccccc1NC(=O)C1C(=O)NCC1c1ccc(Cl)c(Cl)c1 (racemic) [Compound 15],"Plant response rating, Sedge, Umbrella",[1]; [14],0
same,"Plant response rating, Sedge, Umbrella","[1]; 250 g ai/ha, scale 0 to 100",0
same,"Plant response rating, Barnyardgrass",[2]; [16],0
same,"Plant response rating, Barnyardgrass",[2]; [17],0
same,Barnyardgrass plant response rating,[2]; [18],0
same,"Plant response rating, Barnyardgrass",[2]; [19],0
same,"Plant response rating, Velvetleaf",[3]; [16],0
same,"Plant response rating, Velvetleaf",[3]; [17],0
same,Velvetleaf plant response rating,[3]; [18],0
same,"Plant response rating, Velvetleaf",[3]; [20],0
same,"Plant response rating, Foxtail, Giant",[4]; [16],0
same,"Plant response rating, Foxtail, Giant",[4]; [17],0
same,"Foxtail, Giant plant response rating",[4]; [18],20
same,"Plant response rating, Foxtail, Giant",[4]; [20],50
same,"Plant response rating, Barnyardgrass",[5]; [14],0
same,"Plant response rating, Barnyardgrass","[5]; 250 g ai/ha, scale 0 to 100",0
same,"Plant response rating, Ducksalad",[6]; [14],0
same,"Plant response rating, Ducksalad","[6]; 250 g ai/ha, scale 0 to 100",0
same,"Plant response rating, Pigweed",[7]; [16],0
same,"Plant response rating, Pigweed",[7]; [17],0
same,Pigweed plant response rating,[7]; [18],0
same,"Plant response rating, Pigweed",[7]; [20],0
same,"Plant response rating, Rice",[8]; [14],0
same,"Plant response rating, Rice","[8]; 250 g ai/ha, scale 0 to 100",0
same,"Plant response rating, Morningglory",[9]; [16],0
same,"Plant response rating, Morningglory",[9]; [17],0
same,Morningglory plant response rating,[9]; [18],0
same,"Plant response rating, Morningglory",[9]; [20],0
same,"Plant response rating, Corn",[10]; [16],0
same,"Plant response rating, Corn",[10]; [17],0
same,Corn plant response rating,[10]; [18],0
same,"Plant response rating, Corn",[10]; [20],0
same,"Plant response rating, Crabgrass, Large",[11]; [16],0
same,"Plant response rating, Crabgrass, Large",[11]; [17],0
same,"Crabgrass, Large plant response rating",[11]; [18],60
same,"Plant response rating, Crabgrass, Large",[11]; [20],80
same,"Plant response rating, Wheat",[12]; [16],0
same,"Plant response rating, Wheat",[12]; [17],0
same,Wheat plant response rating,[12]; [18],0
same,"Plant response rating, Wheat",[12]; [20],0
O=C1NCC(c2ccc(F)c(F)c2)C1C(=O)Nc1ccccc1[N+](=O)[O-] (racemic) [Compound 20],"Plant response rating, Sedge, Umbrella",[1]; [13],0
same,"Plant response rating, Sedge, Umbrella",[1]; [14],0
same,"Plant response rating, Sedge, Umbrella",[1]; [15],0
same,"Plant response rating, Sedge, Umbrella","[1]; 250 g ai/ha, scale 0 to 100",0
same,"Plant response rating, Barnyardgrass",[2]; [21],80
same,"Plant response rating, Barnyardgrass",[2]; [22],90
same,"Plant response rating, Velvetleaf",[3]; [21],0
same,"Plant response rating, Velvetleaf",[3]; [22],30
same,"Plant response rating, Foxtail, Giant",[4]; [21],80
same,"Plant response rating, Foxtail, Giant",[4]; [22],90
same,"Plant response rating, Barnyardgrass",[5]; [13],0
same,"Plant response rating, Barnyardgrass",[5]; [14],0
same,"Plant response rating, Barnyardgrass",[5]; [15],0
same,"Plant response rating, Barnyardgrass","[5]; 250 g ai/ha, scale 0 to 100",0
same,"Plant response rating, Ducksalad",[6]; [13],0
same,"Plant response rating, Ducksalad",[6]; [14],0
same,"Plant response rating, Ducksalad",[6]; [15],0
same,"Plant response rating, Ducksalad","[6]; 250 g ai/ha, scale 0 to 100",0
same,"Plant response rating, Pigweed",[7]; [21],0
same,"Plant response rating, Pigweed",[7]; [22],0
same,"Plant response rating, Rice",[8]; [13],0
same,"Plant response rating, Rice",[8]; [14],0
same,"Plant response rating, Rice",[8]; [15],0
same,"Plant response rating, Rice","[8]; 250 g ai/ha, scale 0 to 100",0
same,"Plant response rating, Morningglory",[9]; [21],0
same,"Plant response rating, Morningglory",[9]; [22],0
same,"Plant response rating, Corn",[10]; [21],0
same,"Plant response rating, Corn",[10]; [22],0
same,"Plant response rating, Crabgrass, Large",[11]; [21],90
same,"Plant response rating, Crabgrass, Large",[11]; [22],90
same,"Plant response rating, Wheat",[12]; [21],20
same,"Plant response rating, Wheat",[12]; [22],0
